Results: patent publication US6610646B2, “Enhanced duration fragrance delivery system having a non-distorted initial fragrance impression” (The Procter & Gamble Company, priority 2000, dated 2003)

What was measured:
[1] = Olfactory Intensity grading of solutions in DPG by expert panel, Initial Determination; design: species or system human
Text: (§1) To determine the ODC and the OSC for a given fragrance raw material f, an Olfactory Intensity vs. Log Concentration curve is constructed. This process is comprised of both an initial and a final determination.
Olfactory Intensity is graded for each solution from 0 to 100 by a panel of at least three expert graders composed of average artisans of ordinary skill in perfume formulation. The Olfactory Intensity at any concentration is taken to be the mean of the individual grades at that concentration. Table I below gives Olfactory Intensity grades determined in this manner for two common fragrance raw materials at three different weight percent concentration in DPG.
The Initial Determination gives the general shape of the curve and is used to establish which of the nine concentrations (Entries 1-9 in Table II) will be used for the starting fragrance raw material concentration, [f]start, and which will be used for the upper concentration limit, [f]limit, in the Final Determination. The highest concentration of fragrance raw material that gives an Olfactory Intensity below 5 is chosen as the starting concentration for the Final Determination. In the example given, [f]start is 0.00001 wt. % of 2,6-dimethyl-5-heptenal in DPG (Table II, Entry 3). The lowest concentration of fragrance raw material above [f]start for which the Olfactory Intensity of the two immediately adjacent concentrations are separated by less than 5 is chosen as the upper concentration limit for the Final Determination. In the example given, [f]limit is 0.10 wt. % of 2,6-dimethyl-5-heptenal in DPG (Table II, Entry 7).

[2] = Olfactory Intensity grading of solutions in DPG by expert panel, Final Determination (ODC and OSC); design: species or system human; details: for Olfactory Intensity: Final Determination, scale 0 to 100
Text: Odor Detection Concentration, vD: The odor detection concentration (ODC) is defined herein as the lowest weight percent concentration of a fragrance raw material dissolved in dipropylene glycol (DPG) at which the average artisan of ordinary skill in perfume formulation can detect a fragrance raw material olfactory intensity of 10 on a scale of intensity ranging from 0 to 100.
Odor Saturation Concentration, vS: The odor saturation concentration (OSC) is defined herein as the amount of fragrance raw material, expressed as weight percent dissolved in DPG, beyond which no further odor impression is provided as measured by the average artisan of ordinary skill in perfume formulation.
as §1
Final Determination: In constructing the final curve, multiples of said starting concentration are used. The concentrations used are the starting concentration, [f]start=1c, and the multiples 5c, 10c, 20c, 40c, 80c, 160c, 320c, 640c, 1280c, 2560c, 5120c, 1024c, 2048c, 4096c, etc., up to and including the point where the multiple first surpasses [f]limit. Olfactory Intensity is graded for each solution from 0 to 100 by a panel of at least three expert graders composed of average artisans of ordinary skill in perfume formulation. The Olfactory Intensity at any concentration is taken to be the mean of the individual grades at that concentration.
The Final Determination yields values for the ODC and the OSC. The odor detection concentration (ODC) is defined herein as the lowest weight percent concentration, above [f]start, of a fragrance raw material dissolved in dipropylene glycol (DPG) at which the fragrance raw material olfactory intensity is 10 on a scale of intensity ranging from 0 to 100. The determination may require linear interpolation between two consecutive concentrations where one has an olfactory intensity below 10 and the other above 10. For 2,6-dimethyl-5-heptenal, the ODC as determined above is 0.0001 wt. % (Table III, Entry 3). The odor saturation concentration (OSC) is defined as the lowest concentration of a fragrance raw material above the ODC for which the Olfactory Intensity of the two immediately adjacent concentrations are separated by less than 5. For 2,6-dimethyl-5-heptenal, the OSC as determined above is 0.0256 wt. % (Table III, Entry 11).

[3] = 0.0005 wt. % in DPG, scale 0 to 100, mean of panel grades

SMILES: CC(C)=CCCC(C)C=O (stereo not drawn) [2,6-dimethyl-5-heptenal]
- Olfactory Intensity ([1]; Initial Determination, 0.0000001 wt. % in DPG, scale 0 to 100): 0
- Olfactory Intensity ([1]; Initial Determination, 0.000001 wt. % in DPG, scale 0 to 100): 0
- Olfactory Intensity ([1]; Initial Determination, 0.00001 wt. % in DPG, scale 0 to 100): 0
- Olfactory Intensity ([1]; Initial Determination, 0.0001 wt. % in DPG, scale 0 to 100): 10
- Olfactory Intensity ([1]; Initial Determination, 0.001 wt. % in DPG, scale 0 to 100): 55
- Olfactory Intensity ([1]; Initial Determination, 0.01 wt. % in DPG, scale 0 to 100): 81
- Olfactory Intensity ([1]; Initial Determination, 0.1 wt. % in DPG, scale 0 to 100): 83
- Olfactory Intensity ([1]; Initial Determination, 1.0 wt. % in DPG, scale 0 to 100): 84
- Olfactory Intensity ([1]; Initial Determination, 10.0 wt. % in DPG, scale 0 to 100): 84
- Olfactory Intensity ([2]; 0.00001 wt. % in DPG): 0
- Olfactory Intensity ([2]; 0.00005 wt. % in DPG): 6
- Olfactory Intensity ([2]; 0.0001 wt. % in DPG): 10
- Olfactory Intensity ([2]; 0.0002 wt. % in DPG): 19
- Olfactory Intensity ([2]; 0.0004 wt. % in DPG): 33
- Olfactory Intensity ([2]; 0.0008 wt. % in DPG): 50
- Olfactory Intensity ([2]; 0.0016 wt. % in DPG): 64
- Olfactory Intensity ([2]; 0.0032 wt. % in DPG): 74
- Olfactory Intensity ([2]; 0.0064 wt. % in DPG): 78
- Olfactory Intensity ([2]; 0.0128 wt. % in DPG): 81
- Olfactory Intensity ([2]; 0.0256 wt. % in DPG): 83
- Olfactory Intensity ([2]; 0.0512 wt. % in DPG): 83
- Olfactory Intensity ([2]; 0.1024 wt. % in DPG): 84
- odor saturation concentration (OSC) ([2]; lowest concentration in DPG above the ODC where intensities of the two adjacent concentrations differ by less than 5): 0.0256 wt. %
- odor detection concentration (ODC) ([2]; lowest concentration in DPG with olfactory intensity 10 on a scale 0 to 100): 0.0001 wt. %

SMILES: CC1=CC(C)C(C=O)CC1 (stereo not drawn) [2,4-dimethyl-3-cyclohexene-1-carboxaldehyde]
- Olfactory Intensity [1, 3]: 30
- Olfactory Intensity ([1]; 0.001 wt. % in DPG, scale 0 to 100, mean of panel grades): 50
- Olfactory Intensity ([1]; 0.003 wt. % in DPG, scale 0 to 100, mean of panel grades): 70

SMILES: CC=CC(=O)C1C(C)C=CCC1(C)C (stereo not drawn) [1-(2,6,6-trimethyl-3-cyclohexen-1-yl)-2-buten-1-one]
- Olfactory Intensity ([1]; 0.00004 wt. % in DPG, scale 0 to 100, mean of panel grades): 30
- Olfactory Intensity ([1]; 0.00009 wt. % in DPG, scale 0 to 100, mean of panel grades): 50
- Olfactory Intensity [1, 3]: 70
